Earlier results, collected in US20070166273A1, “Skin treatment educational kit” (priority 2006, published 2007).

What was measured:
[1] = system: subhuman primates; conditions: oral
[2] = system: mice; conditions: oral
[3] = system: Wistar rats
[4] = system: Wistar rats; conditions: orally or topically, Wistar rats (8 times max human systemic dose)
[5] = system: mouse; conditions: in vivo mouse micronucleus assay
[6] = system: rats; conditions: dermal
[7] = system: rabbits; conditions: 0.5 mg/kg/day (8 times max human systemic dose)
[8] = system: pigmented mice; conditions: 0.05% tretinoin
[9] = system: hairless albino mice; conditions: concurrent exposure
[10] = dermally applied, 1.0 mg/kg/day (8 times max human systemic dose)
[11] = system: cynomolgus monkey
[12] = system: CD-1 mice; conditions: 91-week dermal
[13] = Ames assay
[14] = system: hamsters; conditions: oral
[15] = system: New Zealand White rabbits; conditions: New Zealand White rabbits (3.3 times max human systemic dose)
[16] = system: human
[17] = system: rats; conditions: oral, rats (16 times the human topical dose)
[18] = system: rats; conditions: oral, 2.5 mg/kg/day (20 times max human systemic dose)
[19] = system: rats; conditions: oral
[20] = system: mice; conditions: 0.025 mg/kg/day topically to mice (0.1 times max human systemic dose)

For `CC1=C(/C=C/C(C)=C/C=C/C(C)=C/C(=O)O)C(C)(C)CCC1` [tretinoin, all-trans-retinoic acid], the teratogenicity [1] is listed as “teratogenic”, the teratogenicity [2] is listed as “teratogenic” and the “anomalies: humerus bent” value ([3]; 10 mg/kg/day topically applied) is listed as 6%. The “anomalies: humerus short” value ([3]; 10 mg/kg/day topically applied) was 13%, the “anomalies: os parietal incompletely ossified” value ([3]; 10 mg/kg/day topically applied) was 14% and the “dose with evidence for teratogenicity (shortened or kinked tail)” value ([3]; topical, Wistar rats (8 times max human systemic dose)) was “greater than 1 mg/kg/day”. The “teratogenic and fetotoxic dose” value [4] was “greater than 1 mg/kg/day”, the mutagenic potential [5] was “negative” and the “sperm count and motility” value ([6]; 0.5 mg/kg/day, rats (4 times max human systemic dose)) was “slight (not statistically significant) decreases”. The “number and percent of nonviable embryos” value ([6]; females treated with 0.25 mg/kg/day and above (2 times max human systemic dose)) was “slight (not statistically significant) increases”, the fetotoxicity and teratogenicity ([7]; dermally applied) was “may be fetotoxic, but not overly teratogenic” and the fetotoxicity ([7]; topical) was “fetotoxic”. The enhancement of photocarcinogenesis [8] was “dark pigmentation did not overcome the enhancement of photocarcinogenesis”, the “tumorigenic potential of carcinogenic doses of UVB and UVA light” value [9] was “may enhance the tumorigenic potential” and the fetotoxicity and teratogenicity [10] was “may be fetotoxic, but not overly teratogenic”. The “dose with fetal malformations” value ([11]; cynomolgus monkey) was ≥ 10 mg/kg/day, the embryolethality and abortion ([11]; cynomolgus monkey) was “dose-related increase” and the “dose at which no fetal malformations were observed” value ([11]; cynomolgus monkey (83 times max human systemic dose)) was 5 mg/kg/day. For the same compound, the skeletal variations ([11]; cynomolgus monkey, all doses) was “increased skeletal variations were observed at all doses”, the “cutaneous squamous cell carcinomas and papillomas in the treatment area” value ([12]; 0.017% and 0.035% formulations (max systemic 0.5 and 1.0 mg/kg/day), female CD-1 mice) was “observed in some female mice” and the liver tumors ([12]; 0.017% and 0.035% formulations, male CD-1 mice) was “dose-related incidence”. For the same compound, the mutagenic potential [13] was “negative”, the teratogenicity [14] was “teratogenic” and the “dose with increased incidence of domed head and hydrocephaly” value [15] was “greater than 0.2 mg/kg/day”. For the same compound, the reports describing holoprosencephaly ([16]; of the thirty human cases) was “five”, the “human cases of temporally associated congenital malformations” value ([16]; two decades of clinical use) was “Thirty” and the “dose with decreased survival of neonates and growth retardation” value [17] was > 2 mg/kg/day. For the same compound, the fetotoxicity [18] was “fetotoxic, resulting in skeletal variations and increased intrauterine death”, the teratogenicity [19] was “teratogenic” and the carcinogenic potential [20] was “no evidence of carcinogenic potential”.
